Experimental data from US20040120954A1, “Regulation of mt1-mmp activity” (priority 2000, published 2004).

Experiments:
MT1-MMP [1] = test: In situ gelatin degrading assay (DQ gelatin or Alexa488-conjugated gelatin); format: cell-based, human; conditions: DQ gelatin; CHO-K1 (FIG. 13) or COS1 cells (FIG. 22)
Protocol: (§1) Two different in situ gelatin degrading assays were performed. One used DQ™ gelatin (Molecular Probes, Inc., OR, USA). DQ gelatin is a fluorescence-quenched gelatin substrate, and will fluoresce upon proteolytic cleavage. Glass cover slips were coated with 5% DQ™ gelatin in a 10 mg/ml unlabeled gelatin solution, and dried. Transfected cells were cultured on the cover slip in a humidified chamber for 16 hrs. The cells were then fixed with 3% para-formaldehyde and the degraded areas were visualized as those showing fluorescence.
(§2) The other assay used Alexa488-conjugated gelatin made with an Alexa488-labeling kit (Molecular Probes). The bottom surfaces of 4-well chamber slides (Nunc) were coated with Alexa488-conjugated gelatin according to the method of Yana, I. and Weiss, S. J., Mol. Biol. Cell, 11, 2387-2401, 2000. Transfected COS1 cells were cultured in the chamber slides for 16 hrs in a humidified culture incubator. The cells were then fixed with 3% para-formaldehyde in PBS, and the degraded area was analyzed under a fluorescence microscope. The degraded area was visualized as a dark, non-fluorescent area. Fluorescence images were analyzed using confocal microscopy (BioRad).
(§3) Next, to determine if MT1PEX-F affects the catalytic activity of MT1-MMP on the cell surface or not, tests for gelatin degrading activity and binding capacity to TIMP-2 were conducted using cells transfected in the same incubator. As shown in FIGS. 12 through 14, CHO-K1 cells were transfected with an expression vector for MT1-F, MT1-F/MT1PEX-F or MT1Cat-F, or a vector alone (Mock). The cells were then treated with trypsin, and separately seeded to: DQ™ gelatin-coated cover slips for testing the proteolytic activity (FIG. 13); and 24-well plates for TIMP-2 binding assay (FIG. 12) and for the activation of proMMP-2 (FIG. 14). Transfected cells on the DQ™ gelatin-coated cover slip as shown in FIG. 13 were incubated in a medium at 37° C. for 18 hrs, and the generated fluorescence was analyzed using confocal microscopy. Transfected cells on the 24-well plate as shown in FIG. 12 were incubated with 25 nM ^125I-labeled TIMP-2 in the presence or absence of BB-94 (50 μM) at 0° C. for 1 hr. MT1-MMP specific binding was calculated by subtracting the datum obtained in the presence of BB-94 (50 μM) from each datum derived from the corresponding experiments. Identically transfected cells on the 24-well plate as shown in FIG. 14 were subjected to the reaction with purified proMMP-2 in a serum-free medium at 37° C. for 18 hrs. The cells and culture supernatants were respectively subjected to Western blotting analysis using a monoclonal anti-FLAG M2 antibody, and gelatin zymography analysis. […] DQ™ gelatin is a fluorescence-quenched gelatin, which fluoresces upon proteolytic cleavage. […]

MT1-MMP [2] = target: T1, MT1-MMP (Homo sapiens, UniProt P50281); test: as above; format: cell-based; conditions: COS1 cells co-transfected with MT1-MMP, Alexa488-labeled gelatin (FIG. 30)
T1 construct: expressed in transfected cells
Protocol: as §1, §2, §3

HT1080 cells = test: Activation of endogenous proMMP-2 in HT1080 cells (zymography, Western blotting); format: cell-based, human
Protocol: FIG. 31: In regard to the efficacy of MT1PEX-F on the matrigel invasive action of HT1080 cells, HT1080 cells were transfected with the stable expression plasmids for MT1PEX-F and the empty vector (Mock). Hygromycin resistant cells were collected and re-seeded. The culture medium was changed to a serum-free medium in the presence or absence of BB94, and the cells were further cultured. The culture media and the cell lysates were analyzed by gelatin zymography and Western blotting using an anti-MT1PEX antibody, respectively.
HT1080 cells are known to express MT1-MMP and MMP-2 endogenously. Thus, the efficacy of MT1PEX-F expression on the activation of endogenous proMMF-2 in HT1080 cells was next examined. The cells were transfected with a plasmid for MT1PEX-F or an empty vector bearing the hygromycin-resistant gene. The culture medium from the hygromycin-resistant cells was analyzed for produced MMP-2 by zymography. […] Co-expression of endogenous MT1-MMP and MT1PEX-F clearly indicated the co-localization of both molecules at the edge of the cells (FIG. 32).

proMMP-2 = target: T2, proMMP-2 (Homo sapiens, UniProt P08253); test: ProMMP-2 binding assay on transfected COS1 cells; format: cell-based; conditions: COS1 cells co-transfected with MT1-MMP (FIG. 29)
T2 construct: made in house; host or cells: HighFive insect cells infected with recombinant baculovirus; purified from culture supernatant
T2 sequence (P08253 30-660 limits assumed): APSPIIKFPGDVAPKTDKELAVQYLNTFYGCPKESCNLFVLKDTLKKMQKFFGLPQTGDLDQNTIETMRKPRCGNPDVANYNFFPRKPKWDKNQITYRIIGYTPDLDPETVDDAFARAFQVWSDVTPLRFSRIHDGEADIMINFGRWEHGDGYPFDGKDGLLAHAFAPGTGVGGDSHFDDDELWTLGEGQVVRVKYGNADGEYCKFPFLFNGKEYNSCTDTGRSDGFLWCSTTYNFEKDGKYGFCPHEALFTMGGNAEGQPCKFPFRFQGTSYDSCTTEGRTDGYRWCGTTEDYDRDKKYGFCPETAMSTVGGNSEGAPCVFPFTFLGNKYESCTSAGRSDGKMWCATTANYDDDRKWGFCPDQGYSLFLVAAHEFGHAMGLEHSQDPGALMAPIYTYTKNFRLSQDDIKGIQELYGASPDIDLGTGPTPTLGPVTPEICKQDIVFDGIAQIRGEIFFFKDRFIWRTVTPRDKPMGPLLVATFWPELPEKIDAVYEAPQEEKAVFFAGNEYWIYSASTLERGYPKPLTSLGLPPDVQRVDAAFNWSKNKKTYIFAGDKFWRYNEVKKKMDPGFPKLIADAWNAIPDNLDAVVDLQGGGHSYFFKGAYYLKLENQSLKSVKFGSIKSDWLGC
Protocol: Transfected COS1 cells were cultured in a 24-well plate (0.2×10^4/well). Forty-eight hours after transfection, the cells were washed three times with serum-free DMEM, and incubated with purified proMMP-2 (2 μg/ml) in the serum-free DMEM at 25° C. for 1 hr. The cells were then washed three times with serum-free DMEM containing 5% dimethyl sulfoxide (DMSO) to remove free proMMP-2, and lysed in 50 μl of a non-reducing SDS-loading buffer. MMP-2 bound to the cells was analyzed by gelatin zymography.

effect on the proteolytic activity of MT1-MMP on the cell surface (MT1-MMP [2])	effect on proMMP-2 binding to the cell surface (proMMP-2)	Substance	gelatin degrading (proteolytic) activity of cells expressing the mutant (MT1-MMP [1])	effect on expression and processing of endogenous MT1-MMP (HT1080 cells; HT1080 cell lysates, Western blotting (FIG. 31))	activation of endogenous proMMP-2 (HT1080 cells; hygromycin-resistant HT1080 cells, serum-free medium (FIG. 31))
–	–	MT1Cat-F: PEX-deleted FLAG-tagged MT1-MMP (Δ Ile318-Gly535)	exhibited the gelatin degrading activity	–	–
did not affect the proteolytic activity	not affected	MT1PEX-F: Catalytic domain-deleted FLAG-tagged MT1-MMP (Δ Tyr112-Pro312), expressed by transfection	–	did not affect the expression and processing of endogenous MT1-MMP	did not effectively activate proMMP-2
